For four molecules, mortality and pest or weed control results are on record in patent US20220386611A1, “NOVEL HETEROARYL-TRIAZOLE COMPOUNDS AS PESTICIDES” (Bayer Aktiengesellschaft, priority 2019, published 2022).

Holding throughout (type): in vivo
For experiment [1], the system named is adult unfed cat fleas (Ctenocephalides felis). Kind of experiment: Ctenocephalides felis oral test. The conditions noted are these: 48 h. On the procedure:
Ctenocephalides felis—Oral Test
(§1) Solvent: dimethyl sulfoxide
To produce a suitable preparation of active compound, 10 mg of active compound are dissolved in 0.5 ml solvent, and the concentrate is diluted with cattle blood to the desired concentration.
Approximately 20 adult unfed cat fleas (Ctenocephalides felis) are placed in flea chambers. The blood chamber, sealed with parafilm on the bottom, are filled with cattle blood supplied with compound solution and placed on the gauze covered top of the flea chamber, so that the fleas are able to suck the blood. The blood chamber is heated to 37° C. whereas the flea chamber is kept at room temperature.
After 2 days mortality in % is determined. 100% means all the fleas have been killed; 0% means none of the fleas have been killed.

The test system of experiment [2] is adult engorged female ticks (Rhipicephalus microplus). Kind of experiment: Rhipicephalus (Boophilus) microplus injection test. The conditions noted are these: 168 h, after 7 days, read-out: efficacy (infertile eggs); for pest or weed control at 0.004 mg: 4 μg/animal. On the procedure:
Rhipicephalus (Boophilus) microplus—Injection Test
as §1
To produce a suitable preparation of active compound, 10 mg of active compound are dissolved in 0.5 mL solvent, and the concentrate is diluted with solvent to the desired concentration.
Five adult engorged female ticks (Rhipicephalus microplus) are injected with 1 μL compound solution into the abdomen. The ticks are transferred into replica plates and incubated in a climate chamber.
After 7 days egg deposition of fertile eggs is monitored. Eggs where fertility is not visible are stored in a climate chamber till hatching after about 42 days. An efficacy of 100% means all eggs are infertile; 0% means all eggs are fertile.

The test system of experiment [3] is larvae of the banded cucumber beetle (Diabrotica balteata). In words: Diabrotica balteata spray test. To be noted: 168 h, 100 g/ha (=32 μg/well), after 7 days, wheat seeds, read-out: efficacy (seedlings grown like untreated, uninfected control). On the procedure: Diabrotica balteata—spray test
Solvent: 78.0 parts by weight of acetone
1.5 parts by weight of dimethylformamide
(§2) Emulsifier: alkylarylpolyglycol ether
To produce a suitable preparation of active compound, 1 part by weight of active compound is mixed with the stated amount of solvent, and the concentrate is diluted with water, containing an emulsifier concentration of 1000 ppm, to the desired concentration. Further test concentrations are prepared by dilution with emulsifier containing water.
Soaked wheat seeds (Triticum aestivum) are placed in a multiple well plate filled with agar and some water and are incubated for 1 day to germinate (5 seeds per well). The germinated wheat seeds are sprayed with a test solution containing the desired concentration of the active ingredient. Afterwards each unit is infected with 10-20 larvae of the banded cucumber beetle (Diabrotica balteata).
After 7 days efficacy in % is determined. 100% means all the seedlings have grown up like in the untreated, uninfected control; 0% means none of the seedlings have grown.

For experiment [4], the system named is green peach aphid (Myzus persicae). In words: Myzus persicae oral test. To be noted: 120 h. On the procedure:
Solvent: 100 parts by weight acetone
To produce a suitable preparation of active compound, 1 part by weight of active compound is mixed with the stated amount of solvent, and the concentrate is diluted with water to the desired concentration. 50 μL compound solution is filled in microtiter plates and 150 μL IPL41 insect medium (33%+15% sugar) is added to obtain a total volume of 200 μL per well. Afterwards the plates are sealed with parafilm through which a mixed population of the green peach aphid (Myzus persicae) can suck on the compound preparation.
(§3) After 5 days mortality in % is determined. 100% means all aphids have been killed and 0% means none of the aphids have been killed.

Experiment [5] deals with adult brown dog ticks (Rhipicephalus sanguineus). In words: Rhipicephalus sanguineus in-vitro contact test with adult brown dog ticks. The conditions noted are these: 5 μg/cm^2 (=500 g/ha), after 48 hours, read-out: efficacy (ticks dead or moribund). On the procedure: Rhipicephalus sanguineus—In-Vitro Contact Tests with Adult Brown Dog Ticks
(§4) 9 mg compound is solved in 1 mL acetone and diluted with acetone to the desired concentration. 250 μL of the test solution is filled in 25 mL glass test tubes and homogeneously distributed on the inner walls by rotation and tilting on a shaking device (2 h at 30 rpm). With a compound concentration of 900 ppm, an inner surface of 44.7 cm^2 and a homogeneous distribution, a dose of 5 μg/cm^2 is achieved.
After the solvent has evaporated, each test tube is filled with 5-10 adult brown dog ticks (Rhipicephalus sanguineus), closed with a perforated lid and incubated in a lying position at room temperature and relative humidity. After 48 hours efficacy is determined. The ticks are patted on the ground of the tubes and are incubated on a heating plate at 45-50° C. for at most 5 minutes. Immotile or uncoordinated moving ticks, which are not able to escape the heat by climbing upwards, are marked as dead or moribund.
An efficacy of 100% means all ticks are dead or moribund; 0% means no ticks are dead or moribund.

Experiment [6] concerns adult cat fleas (Ctenocephalides felis). In words: Ctenocephalides felis in-vitro contact test, adult cat flea. To be noted: after 48 hours, read-out: efficacy (fleas dead or moribund); for pest or weed control at 5 µg/cm2, 500 g/ha: 5 μg/cm^2 (=500 g/ha). On the procedure:
Ctenocephalides felis—In-Vitro Contact Tests Adult Cat Flea 9 mg compound is solved in 1 mL acetone and diluted with acetone to the desired concentration. 250 μL of the test solution is filled in 25 mL glass test tubes and homogeneously distributed on the inner walls by rotation and tilting on a shaking device (2 h at 30 rpm). With a compound concentration of 900 ppm, an inner surface of 44.7 cm^2 and a homogeneous distribution, a dose of 5 μg/cm^2 is achieved.
After the solvent has evaporated, each test tube is filled with 5-10 adult cat fleas (Ctenocephalidesfelis), closed with a perforated lid and incubated in a lying position at room temperature and relative humidity.
After 48 hours efficacy is determined. The fleas are patted on the ground of the tubes and are incubated on a heating plate at 45-50° C. for at most 5 minutes. Immotile or uncoordinated moving fleas, which are not able to escape the heat by climbing upwards, are marked as dead or moribund.
An efficacy of 100% means all fleas are dead or moribund; 0% means no fleas are dead or moribund.

The subject of experiment [7] is green peach aphid (Myzus persicae). Kind of experiment: Myzus persicae spray test. The conditions noted are these: foliar, 120 h, after 5 days, Chinese cabbage leaf disks. On the procedure: Myzus persicae—spray test
(§5) Solvent: 78.0 parts by weight acetone • 1.5 parts by weight dimethylformamide
as §2
(§6) To produce a suitable preparation of active compound, 1 part by weight of active compound is mixed with the stated amount of solvents and is diluted with water, containing an emulsifier concentration of 1000 ppm, to the desired concentration. Further test concentrations are prepared by dilution with emulsifier containing water.
Chinese cabbage (Brassica pekinensis) leaf disks infected with all instars of the green peach aphid (Myzus persicae), are sprayed with a preparation of the active ingredient of the desired concentration.
as §3

Experiment [8] deals with Rhipicephalus microplus larvae (strain Parkhurst, resistant against synthetic pyrethroids). Kind of experiment: Rhipicephalus (Boophilus) microplus in-vitro contact test, larval cattle tick. To be noted: 5 μg/cm^2 (=500 g/ha), after 48 hours, read-out: efficacy (larvae dead or moribund). On the procedure: Rhipicephalus (Boophilus) Microplus—In-Vitro Contact Tests Larval Cattle Tick (Strain Parkhurst, Resistant Against Synthetic Pyrethroids)
as §4
After the solvent has evaporated, each test tube is filled with 20-50 cattle tick larvae (Rhipicephalus microplus), closed with a perforated lid and incubated in a horizontal position at 85% relative humidity and 27° C. in an incubator. After 48 hours efficacy is determined. The larvae are patted on the ground of the tubes and negative geotactic behaviour is recorded.
An efficacy of 100% means all larvae are dead or moribund; 0% means no larvae are dead or moribund.

Experiment [9] has as its system fall armyworm larvae (Spodoptera frugiperda). Kind of experiment: Spodoptera frugiperda spray test. To be noted: in Zea mays, 168 h. On the procedure:
Spodoptera frukiperda—Spray Test
as §5, §2, §6
Maize (Zea mays) leaf sections are sprayed with a preparation of the active ingredient of the desired concentration. Once dry, the leaf sections are infested with fall armyworm larvae (Spodoptera frugiperda).
After 7 days mortality in % is determined. 100% means all caterpillars have been killed and 0% means none of the caterpillars have been killed.

Experiment [10] deals with Aedes aegypti strain MONHEIM. In words: Aedes aegypti test (AEDSAE surface treatment & contact assay). To be noted: 24 hours after contact, read-out: efficacy (mortality); for mortality at 20 mg/m2: surface concentration 20 mg/m^2, 30 minutes exposure. On the procedure:
Aedes Aegypti Test (AEDSAE Surface Treatment & Contact Assay)
(§7) Solvent: Aceton+2000 ppm rapeseed oil methyl ester (RME)
(§8) In order to produce a sufficient, active ingredient containing solution it is necessary to solve the test compound in the solvent-mix (acetone at 2 mg/ml/RME 2000 ppm). This solution is pipetted onto a glazed tile and after evaporation of the acetone, adult mosquitoes of the species Aedes aegypti strain MONHEIM are placed onto the dried surface. The exposure time is 30 minutes. Mortality in percent (%) is determined 24 hours after contact of the insects to the treated surface. 100% mortality means that all tested insects are dead, whereas 0% means that no insect died.

Experiment [11] deals with Anopheles funestus strain FUMOZ-R. In words: Anopheles funestus test (ANPHFU surface treatment & contact assay). To be noted: surface concentration 20 mg/m^2, 30 minutes exposure, 24 hours after contact, read-out: efficacy (mortality). On the procedure:
Anopheles funestus Test (ANPHFU Surface Treatment & Contact Assay)
as §7
as §8, with “Anopheles funestus” for “Aedes aegypti”, “FUMOZ-R (Hunt et al., Med. Vet. Entomol. 2005 September; 19(3): 271-275)” for “MONHEIM”

Experiment [12] has as its system Musca domestica strain WHO-N. In words: Musca domestica test (MUSCDO surface treatment & contact assay). The conditions noted are these: 24 hours after contact, read-out: efficacy (mortality). On the procedure: Musca domestica Test (MUSCDO Surface Treatment & Contact Assay)
as §7
In order to produce a sufficient, active ingredient containing solution it is necessary to solve the test compound in the solvent-mix (acetone at 2 mg/ml/RME 2000 ppm). This solution is pipetted onto a glazed tile and after evaporation of the acetone, adult flies of the species Musca domestica strain WHO-N are placed onto the dried surface. The exposure time is 30 minutes. Mortality in percent (%) is determined 24 hours after contact of the insects to the treated surface. 100% mortality means that all tested insects are dead, whereas 0% means that no insect died.

Where [13] appears, read: surface concentration 4 mg/m^2, 30 minutes exposure.

What is called mortality is the percentage killed.

In the case of `CC(NC(=O)c1cc(Br)cc(C(F)(F)F)c1)c1nc(Br)nn1-c1ncccn1` (racemic) [Example I-009, 3-bromo-N-[1-(5-bromo-2-pyrimidin-2-yl-1,2,4-triazol-3-yl)ethyl]-5-(trifluoromethyl)benzamide], in [1], the mortality at 100 ppm is 100%. Further, the pest or weed control at 0.004 mg in [2] amounted to 100%. The pest or weed control at 32 µg/disc, 100 g/ha in [3] is 100%. The mortality at 4 ppm in [4] is 100%. The pest or weed control at 5 µg/cm2, 500 g/ha came to 100% in experiment [5] and 80% in [6]. Also, the mortality at 100 g/ha is 70% in [7] and 67% in experiment [9]. In addition, the pest or weed control at 5 µg/cm2 in experiment [8] worked out at 100%.
As to `CC(NC(=O)c1cc(Cl)cc(OC(F)(F)F)c1)c1nc(Cl)nn1-c1ncccn1` (racemic) [Example I-001, 3-chloro-N-[1-(5-chloro-2-pyrimidin-2-yl-1,2,4-triazol-3-yl)ethyl]-5-(trifluoromethoxy)benzamide], the mortality at 4 mg/m2 in experiment [10] (setting [13]) and in experiment [12] (setting [13]) was 80 to 100% throughout. In addition, the mortality at 20 mg/m2 was 80 to 100% in [10]; 80 to 100% in [11]; 80 to 100% in [12] (surface concentration 20 mg/m^2, 30 minutes exposure). The pest or weed control at 32 µg/disc, 100 g/ha in experiment [3] amounted to 100%. Moreover, the mortality at 4 ppm in experiment [4] was 100%. The mortality at 100 g/ha in [7] turned out to be 90%; in experiment [9] it was 100%.
Consider `CC(NC(=O)c1cc(Cl)cc(C(F)(F)F)c1)c1nc(Br)nn1-c1ccc(Cl)cn1` (racemic) [Example I-018, N-[1-[5-bromo-2-(5-chloro-2-pyridyl)-1,2,4-triazol-3-yl]ethyl]-3-chloro-5-(trifluoromethyl)benzamide], for which the mortality at 20 mg/m2 in experiment [10] and in experiment [11] was 80 to 100% each time. In addition, in experiment [2], the pest or weed control at 0.004 mg was 80%. Further, in experiment [2] (20 μg/animal), the pest or weed control at 0.02 mg worked out at 100%. Besides, the pest or weed control at 32 µg/disc, 100 g/ha in [3] stood at 100%. Moreover, the pest or weed control at 5 µg/cm2 in [8] turned out to be 80%. Further, the mortality at 100 g/ha in [9] amounted to 83%.
Regarding `CC(NC(=O)c1cc(Br)cc(OC(F)(F)F)c1)c1nc(I)nn1-c1ncccn1` (racemic) [Example I-020, 3-bromo-N-[1-(5-iodo-2-pyrimidin-2-yl-1,2,4-triazol-3-yl)ethyl]-5-(trifluoromethoxy)benzamide], in [1], the mortality at 100 ppm came out at 100%. The pest or weed control at 32 µg/disc, 100 g/ha in experiment [3] amounted to 100%. The mortality at 4 ppm in [4] worked out at 100%. The pest or weed control at 5 µg/cm2, 500 g/ha in [5] and in [6] was 100% each time. Besides, the pest or weed control at 1 µg/cm2, 100 g/ha in [6] (1 μg/cm^2 (=100 g/ha)) stood at 100%. The mortality at 100 g/ha in experiment [7] was determined as 90%; in experiment [9], 100%. The pest or weed control at 5 µg/cm2 in experiment [8] was 100%.
